Test results: article PMC9619929, “Conditional Antimicrobial Peptide Therapeutics” (ACS Nano, 2022)

Columns and labels:
[1] = Pharmacokinetics study; assay type: in vivo, mouse; settings: 15 nmol IV, CD-1 mice, blood, n = 4
Description: ABD-AMP-Cy7 conjugates (15 nmol) were intravenously administered to CD-1 mice. At different time intervals, blood samples (5 μL) were collected via saphenous vein bleeding using heparin-coated capillary tubes. Blood samples were diluted 10-fold in PBS supplemented with Halt protease inhibitor cocktail and EDTA and centrifuged to remove cells. The supernatants were used to quantify conjugate concentration via SDS-PAGE analysis.

[2] = mouse, in vivo, iv
Description: All animal studies were approved by the Massachusetts Institute of Technology’s Committee on Animal Care (MIT protocol 0619-034-22). CD-1 mice (11–12 weeks old) were rendered neutropenic by intraperitoneal injections of cyclophosphamide at 4 d (150 mg/kg) and 1 d (100 mg/kg) prior to infection. PAO1 inoculation was performed by intratracheal instillation of PAO1 suspension (2 × 10^5 cfu in 50 μL PBS) via a 22G blunt-end catheter (EXCEL International). For BALF collection, the mice were first euthanized. An incision into the trachea was made with a needle puncture where lavage was performed with PBS (1 mL) via a catheter-fitted syringe. BALFs were centrifuged to remove cells, aliquoted, and stored in a −20 °C freezer.
ABD-AMP-Cy7 conjugates (15 nmol) were intravenously administered at 6 h post infection. The mice were euthanized 2 h after and organs were harvested for imaging with an Odyssey CLx imager. After imaging, organs were homogenized in PBS supplemented with Halt protease inhibitor cocktail (ThermoFisher Scientific, MA, U.S.A.) using a gentleMAC dissociator (Miltenyi Biotec, CA, U.S.A.). The homogenates were pelleted and the supernatants were used for SDS-PAGE analysis.

[3] = Toxicity evaluation; assay type: in vivo, mouse
Description: ABD-AMP conjugates at different doses were intravenously administered to CD-1 mice. The mice were closely monitored for 24 h before euthanization unless significant morbidity was observed that necessitated early euthanization. Blood samples were drawn via cardiac puncture and dispensed into serum separator tubes (BD Microtainer). The samples were left to clot for at least 30 min and spun at 15 000 rcf for 1.5 min to separate serum. The serum samples were frozen in a −20 °C freezer and submitted for serum chemistry analysis by MIT Diagnostic Laboratory (MIT Division of Comparative Medicine). Serum levels of pro-inflammatory cytokine IL-6 and TNF-α were quantified using ELISA MAX standard sets (BioLegend, CA, U.S.A.) following the manufacturer’s protocol. Organs were harvested, fixed in 10% formalin at RT for 24 h, sectioned into 5 μm slices, and stained with H&E for analysis. The slides were evaluated by a veterinary pathologist blind to the treatment groups and were digitized using a Pannoramic digital slide scanner at 20× magnification.

Azidoacetyl–GiGkflkkakkfGkafvkilkk–K(Cy7)–CONH2 [(D)Pex-Cy7, free unconjugated Cy7-labelled (D)Pex control]
AUC ([1]; SDS-PAGE Cy7 quantification): 2.08 µM·h | t1/2,α [1]: 35.3 min | t1/2,β [1]: 35.6 min | AUC ((D)Pex-Cy7), kidneys [2]: 14.1 % ID*h/g | AUC ((D)Pex-Cy7), liver [2]: 112 % ID*h/g | AUC ((D)Pex-Cy7), lungs [2]: 5.29 % ID*h/g | AUC ((D)Pex-Cy7), spleen [2]: 23.5 % ID*h/g

CC[C@@H](C)[C@@H](NC(=O)CN)C(=O)NCC(=O)N[C@H](CCCCN)C(=O)N[C@H](Cc1ccccc1)C(=O)N[C@H](CC(C)C)C(=O)N[C@H](CCCCN)C(=O)N[C@H](CCCCN)C(=O)N[C@H](C)C(=O)N[C@H](CCCCN)C(=O)N[C@H](CCCCN)C(=O)N[C@H](Cc1ccccc1)C(=O)NCC(=O)N[C@H](CCCCN)C(=O)N[C@H](C)C(=O)N[C@H](Cc1ccccc1)C(=O)N[C@@H](C(=O)N[C@H](CCCCN)C(=O)N[C@@H](C(=O)N[C@H](CC(C)C)C(=O)N[C@H](CCCCN)C(=O)N[C@H](CCCCN)C(N)=O)[C@H](C)CC)C(C)C [(D)Pex]
Signs of distress over the observation period ([3]; 10 mg/kg (AMP eq) IV, 24 h): signs of distress | Histology evaluation of organs (H&E) ([3]; 10 mg/kg (AMP eq) IV, 24 h, blinded veterinary pathologist, n = 3): Pathological damage was observed in kidneys and spleen | Mice that did not survive to the study end point ([3]; 10 mg/kg IV, 24 h): 3 of 5 | Serum pro-inflammatory cytokine IL-6 ([3]; 10 mg/kg IV, ELISA): significantly elevated | Serum levels of ALT, AST, BUN and creatinine ([3]; IV, 5 and 10 mg/kg AMP eq, 24 h, (D)Pex result at 10 mg/kg, n = 3–5): elevated beyond a normal reference range | Maximum tolerated dose (MTD) ([3]; IV, CD-1 mice, monitored 24 h): 5 mg/kg
